The experiment has as its target T1, mPGES-1 (Homo sapiens, UniProt O14684).
T1 construct: made in house; host or cells: E. coli (membrane fraction)
T1 sequence (O14684 1-152): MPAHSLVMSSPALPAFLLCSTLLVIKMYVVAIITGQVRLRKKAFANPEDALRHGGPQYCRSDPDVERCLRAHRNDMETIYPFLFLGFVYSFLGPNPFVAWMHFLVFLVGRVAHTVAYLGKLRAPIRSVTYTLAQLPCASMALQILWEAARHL
In words: mPGES-1 assay: conversion of PGH2 to PGE2, PGE2 measured by HPLC. As to conditions: mPGES-1 expressed in E. coli, membrane fraction. It is filed as biochemical. As to the method:
In the assay mPGES-1 catalyses the reaction where the substrate PGH2 is converted to PGE2. mPGES-1 is expressed in E. coli and the membrane fraction is dissolved in 20 mM NaPi-buffer pH 8.0 and stored at −80° C. In the assay mPGES-1 is dissolved in 0.1M KPi-buffer pH 7.35 with 2.5 mM glutathione. The stop solution consists of H2O/MeCN (7/3), containing FeCl2 (25 mM) and HCl (0.15 M). The assay is performed at room temperature in 96-well plates. Analysis of the amount of PGE2 is performed with reversed phase HPLC (Waters 2795 equipped with a 3.9×150 mm C18 column). The mobile phase consists of H2O/MeCN (7/3), containing TFA (0.056%), and absorbance is measured at 195 nm with a Waters 2487 UV-detector.
The following is added chronologically to each well: • 1. 100 μL mPGES-1 in KPi-buffer with glutathione. Total protein concentration: 0.02 mg/mL. • 2. 1 μL inhibitor in DMSO. Incubation of the plate at room temperature for 25 minutes. • 3. 4 μL of a 0.25 mM PGH2 solution. Incubation of the plate at room temperature for 60 seconds. • 4. 100 μL stop solution. • 180 μL per sample is analyzed with HPLC.

Setting [1] is: 25 min preincubation with inhibitor, 60 s with PGH2, room temperature, read-out: IC50 values.

Like-named read-outs stand apart in the source and are kept apart here. Where only a bound is given, the exact number is not on record here.

For `Cc1ccc(NS(=O)(=O)c2cc(S(=O)(=O)Nc3ccc(C)cc3)c3ccccc3c2)cc1` [Example 20, N^1,N^3-di(p-tolyl)naphthalene-1,3-disulfonamide], the IC50 under setting [1] came out at 3.7 µM. With `Cc1cccc(C)c1NS(=O)(=O)c1cc(S(=O)(=O)Nc2c(C)cccc2C)c2ccccc2c1` [Example 11, N^1,N^3-di(2,6-xylyl)naphthalene-1,3-disulfonamide], under setting [1], the IC50 was 1.7 µM. For the compound `Cc1cc(C)c(NS(=O)(=O)c2cc(S(=O)(=O)Nc3c(C)cc(C)cc3C)c3cc(O)ccc3c2)c(C)c1` [Example 3, N^1,N^3-di(mesityl)-7-hydroxynaphthalene-1,3-disulfonamide], under setting [1], the IC50 stood at 1.1 µM.

For `O=S(=O)(Nc1ccccc1)c1cc(S(=O)(=O)Nc2ccccc2)c2cc(O)ccc2c1` [N^1,N^3-Diphenyl-7-hydroxynaphthalene-1,3-disulfonamide], the IC50 (stated as 10 μM or below, read-out: concentration exhibiting 50% inhibition of mPGES-1) was at most 10 µM. Turning to `Cc1c(Cl)cccc1NS(=O)(=O)c1cc(S(=O)(=O)Nc2cccc(Cl)c2C)c2ccccc2c1` [Example 15, N^1,N^3-di(3-chloro-2-methylphenyl)naphthalene-1,3-disulfonamide], under setting [1], the IC50 amounted to 1.7 µM. Regarding `O=S(=O)(Nc1ccccc1C(F)(F)F)c1cc(S(=O)(=O)Nc2ccccc2C(F)(F)F)c2cc(O)ccc2c1` [Example 9, N^1,N^3-di(2-trifluoromethylphenyl)-7-hydroxynaphthalene-1,3-disulfonamide], the IC50 under setting [1] was determined as 4.1 µM. Regarding `Cc1ccc(Cl)cc1NS(=O)(=O)c1cc(S(=O)(=O)Nc2cc(Cl)ccc2C)c2cc(O)ccc2c1` [Example 7, N^1,N^3-di(5-chloro-2-methylphenyl)-7-hydroxynaphthalene-1,3-disulfonamide], the IC50 under setting [1] was found to be 1.2 µM. `Cc1ccc(Cl)cc1NS(=O)(=O)c1cc(S(=O)(=O)Nc2cc(Cl)ccc2C)c2ccccc2c1` [Example 16, N^1,N^3-di(5-chloro-2-methylphenyl)naphthalene-1,3-disulfonamide]: the IC50 under setting [1] worked out at 1.3 µM.

These data come from US20090234014A1, “Naphthalene-Disulfonamides Useful for the Treatment of Inflammation” (priority 2005, published 2009).
